Data published in publication PMC9230797, “Integration of a Physiologically Based Pharmacokinetic and Pharmacodynamic Model for Tegoprazan and Its Metabolite: Application for Predicting Food Effect and Intragastric pH Alterations” (Pharmaceutics, 2022).
Values joined by “and” are separate entries in the source; they are usually repeats but may differ in a detail not shown here. Equal entries are not always repeated. Where two headings read alike, the source gives them in different places.

What was measured:
[1] = parameters: method as in earlier work; conditions: cited from earlier work
CYP2E1 = target: T1, CYP2E1 (Homo sapiens, UniProt P05181); assay: Intrinsic clearance using recombinant CYPs: CYP2E1; type: in vitro ADME
T1 construct: purchased Corning Life Sciences (Woburn, MA, USA)
Procedure: (§1) The elimination profiles of tegoprazan and M1 were assessed using rCYPs. All the assay procedures were performed according to the manufacturer’s instructions. Master mix (1.399 mL), containing the NADPH-generating system, 3.3 mM of glucose 6-phosphate, PBS buffer, deionized water, and each rCYP (25 pmol/μL of CYP2C8, 2C19, and 2E1 and 50 pmol/μL of CYP3A4, 2C9, and 2D6), was added to a microtube and pre-incubated at 37 °C for 5 min. Next, 1 μM tegoprazan and M1 were added and incubated at 37 °C for 0, 5, 10, 20, 30, 45, and 60 min. A total of 100 μL of the sample, incubated for predefined duration, was transferred to a fresh e-tube. Next, 200 μL of acetonitrile containing tegoprazan-d6 (0.5 μM) was added, vortexed for 5 min, and centrifuged at 16,200× g and 4 °C for 10 min. The concentrations of the remaining tegoprazan and M1 were determined by LC–MS/MS. All experiments were performed in duplicate. CLint,rCYP levels were assessed using the results of the disappearance test. […] The CLint resulting from rCYPs was calculated using Equation (3):(3) CLint,rCYP(μL/min/pmol CYP)=0.693/t1/2×1400/concentration of CYP
(§2) Caco-2 and rCYP samples were quantified using LC-MS/MS (UPLC® I-class coupled with TQ-MS (Waters, Milford, MA, USA). The mobile phase comprised (a) 0.1% formic acid and (b) acetonitrile containing 0.1% formic acid. Gradient elution at a flow rate of 0.3 mL/min was applied. Tegoprazan, M1, and the internal standard (tegoprazan-d6) were optimized in electrospray ionization positive mode. Acetonitrile with 0.1 μM of tegoprazan-d6 was added to the collected Caco-2 or rCYP samples. Then, processed samples were centrifuged at 13,000× g for 20 min. After centrifugation, 100 μL of supernatant was transferred to an LC-MS vial and analyzed using LC-MS/MS. […] The stability of tegoprazan was evaluated, and it satisfied the acceptance criteria (coefficient of variances was within 15%) under variable conditions including reinjection, processed sample stability (PSS), and short-term stability for the stock and sample.

[2] = parameters: method as in PMID 32055586; conditions: Observed (n = 12); single 100 mg tegoprazan; mean (5th–95th percentile); cited from earlier work
recombinant CYP2D6 = target: T2, recombinant CYP2D6 (Homo sapiens, UniProt P10635); assay: Intrinsic clearance using recombinant CYPs: CYP2D6; type: in vitro ADME; conditions: 1 μM
T2 construct: purchased Corning Life Sciences (Woburn, MA, USA)
Procedure: The elimination profiles of tegoprazan and M1 were assessed using rCYPs. All the assay procedures were performed according to the manufacturer’s instructions. Master mix (1.399 mL), containing the NADPH-generating system, 3.3 mM of glucose 6-phosphate, PBS buffer, deionized water, and each rCYP (25 pmol/μL of CYP2C8, 2C19, and 2E1 and 50 pmol/μL of CYP3A4, 2C9, and 2D6), was added to a microtube and pre-incubated at 37 °C for 5 min. Next, 1 μM tegoprazan and M1 were added and incubated at 37 °C for 0, 5, 10, 20, 30, 45, and 60 min. A total of 100 μL of the sample, incubated for predefined duration, was transferred to a fresh e-tube. Next, 200 μL of acetonitrile containing tegoprazan-d6 (0.5 μM) was added, vortexed for 5 min, and centrifuged at 16,200× g and 4 °C for 10 min. The concentrations of the remaining tegoprazan and M1 were determined by LC–MS/MS. All experiments were performed in duplicate. CLint,rCYP levels were assessed using the results of the disappearance test. The terminal slope of the linear regression was used to determine the CLint for tegoprazan. The CLint resulting from rCYPs was calculated using Equation (3):(3) CLint,rCYP(μL/min/pmol CYP)=0.693/t1/2×1400/concentration of CYP […]

[3] = PBPK model input parameters predicted in SimCYP or obtained by parameter estimation; conditions: human; initial model value; Vd of the clinical study applied; read-out: Vss
From the text: The tegoprazan and M1 PBPK models were developed using SimCYP® simulator, version 20 (Certara, Princeton, NJ, USA). Compound libraries were incorporated into an in vitro dataset, including the microsomal clearance of tegoprazan and M1. Observed PK parameters were obtained from the aforementioned clinical studies (Table 1 and Table 2).
The absorption of tegoprazan was applied to the advanced dissolution, absorption, and metabolism (ADAM) model, and the diffusion layer model (DLM) built into SimCYP® was applied to the considered formulation and pH-dependent solubility of tegoprazan. The permeability of tegoprazan was determined by a Caco-2 permeability assay and optimized by parameter estimation. Caco-2 permeability was optimized such that the predicted concentration–time profiles were fitted to clinical study data. The metabolite was generated by the metabolism of the parent drug; therefore, absorption was not considered.
The tissue distribution in the PBPK model was predicted by the distribution model (e.g., Rodger and Rowland method, Poulin and Theil method) and the tissue:plasma partition coefficient (Kp) scalar for specific organ or global values. Predicted systemic distribution was expressed as the volume of distribution in a steady state (Vss). […]

CYP2C9 = target: T3, CYP2C9 (Homo sapiens, UniProt P11712); assay: Intrinsic clearance using recombinant CYPs: CYP2C9; type: in vitro ADME
T3 construct: purchased Corning Life Sciences (Woburn, MA, USA)
Procedure: as §1, §2

intragastric pH = system: intragastric pH; parameters: method as in PMID 31437865; conditions: Observed (n = 6), cited from earlier work
[4] = weak base; cited from earlier work
CYP3A4 = system: CYP3A4; parameters: method as in ref 17, 18 = [17]; 17. Tegoprazan (K-CAB) Available online: https://pdfslide.net/reader/f/tegoprazan-k-cab-2019-02-08-tegoprazan-metabolic-pathway-75-by-cyp3a4 (accessed on 10 December 2020) || [18]; PMID 34575565; doi:10.3390/pharmaceutics13091489; 18. Yoon D.Y. Lee S. Jang I.-J. Kim M. Lee H. Kim S. Kim B. Song G.S. Rhee S.-J. Prediction of Drug–Drug Interaction Potential of Tegoprazan Using Physiologically Based Pharmacokinetic Modeling and Si; conditions: cited from earlier work
[5] = parameters: method as in PMID 33131095; conditions: 100 mg repeatedly; 10 healthy Chinese subjects; cited from earlier work

T2 sequence (P10635 whole entry): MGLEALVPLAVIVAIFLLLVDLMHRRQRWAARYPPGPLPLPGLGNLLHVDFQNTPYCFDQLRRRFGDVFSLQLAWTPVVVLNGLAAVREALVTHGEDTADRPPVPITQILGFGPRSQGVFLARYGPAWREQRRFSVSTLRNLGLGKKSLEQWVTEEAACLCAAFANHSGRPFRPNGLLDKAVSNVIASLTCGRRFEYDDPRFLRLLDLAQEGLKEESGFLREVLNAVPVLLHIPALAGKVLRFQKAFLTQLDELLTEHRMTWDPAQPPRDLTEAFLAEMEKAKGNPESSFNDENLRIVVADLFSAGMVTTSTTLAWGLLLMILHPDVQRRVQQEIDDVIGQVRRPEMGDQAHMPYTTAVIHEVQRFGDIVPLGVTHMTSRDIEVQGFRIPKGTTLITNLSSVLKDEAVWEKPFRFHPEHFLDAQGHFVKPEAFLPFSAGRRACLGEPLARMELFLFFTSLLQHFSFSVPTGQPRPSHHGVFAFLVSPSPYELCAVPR
T3 sequence (P11712 whole entry): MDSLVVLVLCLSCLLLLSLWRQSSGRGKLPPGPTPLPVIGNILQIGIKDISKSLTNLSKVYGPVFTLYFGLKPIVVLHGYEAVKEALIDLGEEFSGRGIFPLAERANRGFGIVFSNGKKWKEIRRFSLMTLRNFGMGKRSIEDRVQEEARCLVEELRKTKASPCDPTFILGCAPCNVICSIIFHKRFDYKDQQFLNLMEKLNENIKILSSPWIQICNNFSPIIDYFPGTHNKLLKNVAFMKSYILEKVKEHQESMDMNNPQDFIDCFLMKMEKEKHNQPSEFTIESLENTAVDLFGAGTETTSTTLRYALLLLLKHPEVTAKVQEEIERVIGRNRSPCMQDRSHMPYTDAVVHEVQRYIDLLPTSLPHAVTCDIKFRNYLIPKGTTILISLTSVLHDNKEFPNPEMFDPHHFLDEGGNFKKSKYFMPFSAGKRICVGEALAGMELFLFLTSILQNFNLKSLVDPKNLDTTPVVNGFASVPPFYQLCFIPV
T1 sequence (P05181 whole entry): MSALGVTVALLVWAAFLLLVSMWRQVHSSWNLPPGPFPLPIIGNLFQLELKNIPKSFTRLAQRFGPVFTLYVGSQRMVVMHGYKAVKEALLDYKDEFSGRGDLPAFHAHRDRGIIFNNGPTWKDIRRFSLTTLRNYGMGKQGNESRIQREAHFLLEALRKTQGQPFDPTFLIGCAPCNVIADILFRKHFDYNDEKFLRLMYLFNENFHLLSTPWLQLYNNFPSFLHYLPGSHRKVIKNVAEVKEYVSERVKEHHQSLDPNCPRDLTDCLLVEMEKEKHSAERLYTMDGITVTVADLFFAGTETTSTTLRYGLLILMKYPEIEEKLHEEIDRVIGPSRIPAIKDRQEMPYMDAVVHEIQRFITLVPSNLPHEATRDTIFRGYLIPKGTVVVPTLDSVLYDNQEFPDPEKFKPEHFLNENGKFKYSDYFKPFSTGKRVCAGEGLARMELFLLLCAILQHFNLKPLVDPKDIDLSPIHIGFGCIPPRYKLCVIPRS

CLint, CYP2E1 (CYP2E1; 1 μM, experimental data): 0.03 µL/min/pmol and 0.030 µL/min/pmol
half-life at 1 μM (CYP2E1; human, recombinant CYP2E1, rCYP2E1): 11.6 h
Slope (disappearance) (CYP2E1; rCYP2E1, 1 μM): -0.001
CLint, CYP2D6 (recombinant CYP2D6; experimental data): 0.02 µL/min/pmol and 0.020 µL/min/pmol
Slope (disappearance) (recombinant CYP2D6; rCYP2D6): < 0.001
Vd [3]: 1.55 L/kg
CLint, CYP2C9 (CYP2C9; 1 μM, experimental data): 0.14 µL/min/pmol and 0.140 µL/min/pmol
half-life at 1 μM (CYP2C9; human, recombinant CYP2C9, rCYP2C9): 2.27 h
Slope (disappearance) (CYP2C9; rCYP2C9, 1 μM): -0.005
SMILES: Cc1nc2cc(C(=O)N(C)C)cc(O[C@H]3CCOc4cc(F)cc(F)c43)c2[nH]1 [tegoprazan]
CLR (renal clearance) [1]: 1.1 L/h
fu (unbound fraction) ([1]; plasma): 0.087
AUC0–24 h [2]: 5611 (3783–7489) ng × h/mL
CL [2]: 17.8 (13.1–24.4) L/h
Cmax [2]: 1425 (908–2184) ng/mL
pH ≥ 4 over 24 h (intragastric pH; 50 mg Single): 48.9%
pH ≥ 4 over 24 h (intragastric pH; 100 mg q.d. for 7 Days, Day 1): 62.3%
pH ≥ 4 over 24 h (intragastric pH; 100 mg q.d. for 7 Days, Day 7): 70.4%
pKa [4]: 5.1
metabolic fraction by CYP3A4 of total hepatic clearance (CYP3A4): approximately 75%
AUC and CL on Day 7 compared with Day 1 [5]: did not show a significant difference
Vd/F on Day 7 compared with Day 1 [5]: increased significantly
